# Laboratory results taken from US7829560B2, “1,4-disubstituted naphthalenes as inhibitors of P38 MAP kinase” (Arqule, Inc., priority 2004, dated 2010).
# Assays:
# [1] = test system: TNFα release from THP-1 cells; experiment: Inhibition of TNFα release from LPS-stimulated THP-1 cells, ELISA; assay type: cell-based; conditions: Homo sapiens, THP-1, THP-1 cells, read-out: [CELL] THP-1, IC50, TNF ALPHA, ELISA
# In short: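 Human THP-1 monocytes, 10^6 cells/ml in RPMI with 10% FBS, no serum or 1% HSA, preincubated 30 min at 37 °C with compound (≤0.5% DMSO), then stimulated with 10 μg/ml LPS for 18 h. Supernatant TNFα measured by ELISA; IC50 from non-linear dose-response regression.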
# [2] = target: T1, p38α (Homo sapiens, UniProt Q16539); experiment: p38 MAP Kinase assay: inhibition of ATF2 phosphorylation, ELISA; assay type: biochemical; conditions: ATF2 phosphorylation; read-out: [ENZ] P38 ALPHA, IC50, ELISA
# T1 construct: p38 MAP Kinases are recombinant human full-length proteins with an amino-terminal GST fusion; GST (N); purchased Upstate Biotechnology Inc; host or cells: E. coli
# T1 sequence (Q16539 whole entry, the tested form may be a part): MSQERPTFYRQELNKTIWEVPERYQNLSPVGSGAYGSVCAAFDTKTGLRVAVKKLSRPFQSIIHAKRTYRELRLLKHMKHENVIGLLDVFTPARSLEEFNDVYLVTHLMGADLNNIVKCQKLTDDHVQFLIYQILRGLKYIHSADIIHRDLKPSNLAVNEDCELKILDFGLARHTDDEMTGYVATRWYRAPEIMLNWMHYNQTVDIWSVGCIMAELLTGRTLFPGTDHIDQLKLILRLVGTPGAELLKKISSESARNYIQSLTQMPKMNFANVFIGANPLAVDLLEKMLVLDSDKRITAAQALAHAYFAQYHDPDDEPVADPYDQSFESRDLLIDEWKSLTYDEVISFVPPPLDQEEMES
# In short: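 GST-tagged full-length human p38 MAP kinase with GST-ATF2 (aa 19–96; 1.25 μM) and 40 μM ATP in HEPES pH 7.5 buffer, without (Method I) or with (Method II) 1% human serum albumin. Compound pre-incubated 15 min at room temperature; reaction 30 min at 37 °C; ATF2 Thr69 phosphorylation measured by ELISA (A450).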
IC50 [1],melting point,IC50 [2],Compound
115 nM,88 to 89 °C,3 nM,"O=C(Nc1ccc(Oc2ccnc(NCCN3CCCCC3)n2)c2ccccc12)c1cc(F)cc(N2CCCCC2)c1 [Compound B390, 3-Fluoro-5-piperidin-1-yl-N-[4-({2-[(2-piperidin-1-ylethyl)amino]pyrimidin-4-yl}oxy)-1-naphthyl]benzamide]"
122 nM,94 to 95 °C,7.1 nM,"COCC(C)Nc1nccc(Oc2ccc(NC(=O)c3cc(F)cc(N4CCCCC4)c3)c3ccccc23)n1 (stereo not drawn) [Compound B392, 3-Fluoro-N-[4-({2-[(2-methoxy-1-methylethyl)amino]pyrimidin-4-yl}oxy)-1-naphthyl]-5-piperidin-1-ylbenzamide]"
10.8 nM,112 to 114 °C,0.7 nM,"CN1CCCC1CCNc1nccc(Oc2ccc(NC(=O)c3cc(F)cc(N4CCCCC4)c3)c3ccccc23)n1 (stereo not drawn) [Compound B394, 3-Fluoro-N-{4-[(2-{[2-(1-methylpyrrolidin-2-yl)ethyl]amino}pyrimidin-4-yl)oxy]-1-naphthyl}-5-piperidin-1-ylbenzamide]"
212 nM,125 to 127 °C,31.3 nM,"CN(CC1OCCO1)c1nccc(Oc2ccc(NC(=O)c3cc(F)cc(N4CCCCC4)c3)c3ccccc23)n1 [Compound B395, N-[4-({2-[(1,3-Dioxolan-2-ylmethyl)(methyl)amino]pyrimidin-4-yl}oxy)-1-naphthyl]-3-fluoro-5-piperidin-1-ylbenzamide]"
> 1000 nM,175 to 177 °C,109 nM,"CC(C)(C)OC(=O)N1CCN(c2nccc(Oc3ccc(NC(=O)c4cc(F)cc(N5CCCCC5)c4)c4ccccc34)n2)CC1 [Compound B397, tert-Butyl-4-[4-({4-[(3-fluoro-5-piperidin-1-ylbenzoyl)amino]-1-naphthyl}oxy)pyrimidin-2-yl]piperazine-1-carboxylate]"
241 nM,86 to 87 °C,7.9 nM,"CCN1CCN(c2nccc(Oc3ccc(NC(=O)c4cc(F)cc(N5CCCCC5)c4)c4ccccc34)n2)CC1 [Compound B398, N-(4-{[2-(4-Ethylpiperazin-1-yl)pyrimidin-4-yl]oxy}-1-naphthyl)-3-fluoro-5-piperidin-1-ylbenzamide]"
565 nM,102 to 104 °C,7.4 nM,"CC(=O)N1CCN(c2nccc(Oc3ccc(NC(=O)c4cc(F)cc(N5CCCCC5)c4)c4ccccc34)n2)CC1 [Compound B400, N-(4-{[2-(4-Acetylpiperazin-1-yl)pyrimidin-4-yl]oxy}-1-naphthyl)-3-fluoro-5-piperidin-1-ylbenzamide]"
655 nM,93 to 95 °C,14.6 nM,"O=C(Nc1ccc(Oc2ccnc(N3CCCC(O)C3)n2)c2ccccc12)c1cc(F)cc(N2CCCCC2)c1 (stereo not drawn) [Compound B402, 3-Fluoro-N-(4-{[2-(3-hydroxypiperidin-1-yl)pyrimidin-4-yl]oxy}-1-naphthyl)-5-piperidin-1-ylbenzamide]"
254 nM,135 to 136 °C,48.3 nM,"COC(CN(C)c1nccc(Oc2ccc(NC(=O)c3cc(F)cc(N4CCCCC4)c3)c3ccccc23)n1)OC [Compound B403, N-[4-({2-[(2,2-Dimethoxyethyl)(methyl)amino]pyrimidin-4-yl}oxy)-1-naphthyl]-3-fluoro-5-piperidin-1-ylbenzamide]"
1120 nM,93 to 94 °C,151 nM,"CC1CCCN1c1nccc(Oc2ccc(NC(=O)c3cc(F)cc(N4CCCCC4)c3)c3ccccc23)n1 (stereo not drawn) [Compound B404, 3-Fluoro-N-(4-{[2-(2-methylpyrrolidin-1-yl)pyrimidin-4-yl]oxy}-1-naphthyl)-5-piperidin-1-ylbenzamide]"
202 nM,93 to 94 °C,30.4 nM,"CN(C)[C@@H]1CCN(c2nccc(Oc3ccc(NC(=O)c4cc(F)cc(N5CCCCC5)c4)c4ccccc34)n2)C1 [Compound B405, N-[4-({2-[(3R)-3-(Dimethylamino)pyrrolidin-1-yl]pyrimidin-4-yl}oxy)-1-naphthyl]-3-fluoro-5-piperidin-1-ylbenzamide]"
700 nM,116 to 117 °C,56.1 nM,"C#CCN(C)c1nccc(Oc2ccc(NC(=O)c3cc(F)cc(N4CCCCC4)c3)c3ccccc23)n1 [Compound B407, 3-Fluoro-N-[4-({2-[methyl(prop-2-yn-1-yl)amino]pyrimidin-4-yl}oxy)-1-naphthyl]-5-piperidin-1-ylbenzamide]"
> 1000 nM,211 to 212 °C,90.9 nM,"CC(C)(C)OC(=O)NC1CCN(c2nccc(Oc3ccc(NC(=O)c4cc(F)cc(N5CCCCC5)c4)c4ccccc34)n2)CC1 [Compound B410, tert-Butyl{1-[4-({4-[(3-fluoro-5-piperidin-1-ylbenzoyl)amino]-1-naphthyl}oxy)pyrimidin-2-yl]piperidin-4-yl}carbamate]"
23.5 nM,96 to 98 °C,1.7 nM,"O=C(Nc1ccc(Oc2ccnc(NCC3OCCO3)n2)c2ccccc12)c1cc(F)cc(N2CCCCC2)c1 [Compound B411, N-[4-({2-[(1,3-Dioxolan-2-ylmethyl)amino]pyrimidin-4-yl}oxy)-1-naphthyl]-3-fluoro-5-piperidin-1-ylbenzamide]"
580 nM,81 to 82 °C,28.9 nM,"COCCN(C)c1nccc(Oc2ccc(NC(=O)c3cc(F)cc(N4CCCCC4)c3)c3ccccc23)n1 [Compound B414, 3-Fluoro-N-[4-({2-[(2-methoxyethyl)(methyl)amino]pyrimidin-4-yl}oxy)-1-naphthyl]-5-piperidin-1-ylbenzamide]"
472 nM,174 to 176 °C,50.2 nM,"C[C@@H]1CN(c2nccc(Oc3ccc(NC(=O)c4cc(F)cc(N5CCCCC5)c4)c4ccccc34)n2)C[C@H](C)O1 [Compound B416, N-[4-({2-[(2R,6S)-2,6-Dimethylmorpholin-4-yl]pyrimidin-4-yl}oxy)-1-naphthyl]-3-fluoro-5-piperidin-1-ylbenzamide]"
538 nM,155 to 156 °C,102 nM,"CN(Cc1ccco1)c1nccc(Oc2ccc(NC(=O)c3cc(F)cc(N4CCCCC4)c3)c3ccccc23)n1 [Compound B418, 3-Fluoro-N-[4-({2-[(2-furylmethyl)(methyl)amino]pyrimidin-4-yl}oxy)-1-naphthyl]-5-piperidin-1-ylbenzamide]"
225 nM,108 to 110 °C,15.2 nM,"CN(C)C1CCN(c2nccc(Oc3ccc(NC(=O)c4cc(F)cc(N5CCCCC5)c4)c4ccccc34)n2)C1 (stereo not drawn) [Compound B420, N-[4-({2-[3-(Dimethylamino)pyrrolidin-1-yl]pyrimidin-4-yl}oxy)-1-naphthyl]-3-fluoro-5-piperidin-1-ylbenzamide]"
689 nM,140 to 142 °C,17.8 nM,"O=C1CN(c2nccc(Oc3ccc(NC(=O)c4cc(F)cc(N5CCCCC5)c4)c4ccccc34)n2)CCN1 [Compound B421, 3-Fluoro-N-(4-{[2-(3-oxopiperazin-1-yl)pyrimidin-4-yl]oxy}-1-naphthyl)-5-piperidin-1-ylbenzamide]"
63.2 nM,102 to 104 °C,1.6 nM,"CS(=O)(=O)CCNc1nccc(Oc2ccc(NC(=O)c3cc(F)cc(N4CCCCC4)c3)c3ccccc23)n1 [Compound B422, 3-Fluoro-N-{4-[(2-{[2-(methylsulfonyl)ethyl]amino}pyrimidin-4-yl)oxy]-1-naphthyl}-5-piperidin-1-ylbenzamide]"
773 nM,172 to 174 °C,111 nM,"O=C(Nc1ccc(Oc2ccnc(N3CCC(F)(F)CC3)n2)c2ccccc12)c1cc(F)cc(N2CCCCC2)c1 [Compound B423, N-(4-{[2-(4,4-Difluoropiperidin-1-yl)pyrimidin-4-yl]oxy}-1-naphthyl)-3-fluoro-5-piperidin-1-ylbenzamide]"
2210 nM,221 to 222 °C,39.9 nM,"Cc1ncsc1CCOc1ccc(NC(=O)c2cc(F)cc(N3CCCCC3)c2)c2ccccc12 [Compound B424, 3-Fluoro-N-{4-[2-(4-methyl-1,3-thiazol-5-yl)ethoxy]-1-naphthyl}-5-piperidin-1-ylbenzamide]"
